Measured values taken from patent publication US20230303503A1, “CELL ACTIVATABLE IRON CHELATORS” (BOARD OF REGENTS, THE UNIVERSITY OF TEXAS SYSTEM, priority 2020, published 2023).
Where “and” joins values, the source holds several entries; their conditions need not be identical. Equal values may be shown once. Read-outs that look alike come from different tables or passages of the source.

How the values were obtained:
[1] = Behaviour in aqueous media (solubility, aggregation, DLS); type: physicochemical; conditions: water; neutral pH for ExJade
Protocol: Several new ExJade derivatives, designed to control solubility and modulate the intrinsic electronic features, namely ExPh, ExPh-OMe, ExH, ExBT, ExBT-OMe and ExPhos, were prepared. […] In marked contrast to what is seen in aqueous environments, solutions of ExPh and ExBT in most common organic solvents display no appreciable emission.
No significant fluorescence quenching was seen upon changing the solvents in which ExPh-OMe and ExBT-OMe were analyzed - DMSO, PhMe, THF, DCM, acetone, MeCN, MeOH and PBS. […] This putative ICT phenomenon has been observed in structurally similar N-phenylpyrrole analogues (Yoshihara et al., 2005; Yoshihara et al., 2003). Further support for the proposed aqueous induced aggregation mechanism invoked in the case of ExPh and […] came from studies of the parent system, ExJade.

[2] = system: A549 human lung cancer cell line; test: MTT cell viability / antiproliferative assay in A549 cells; type: cell-based; conditions: for IC50: A549, MTT, triplicate
Protocol: Cell culture. A549 cells (ATCC® CCL-185™) were maintained in growth medium consisting of RPMI 1640 Medium (Sigma-Aldrich, MO, USA) supplemented with 10% fetal bovine serum (Sigma-Aldrich, MO, USA) and 2% Penicillin/Streptomycin (Sigma-Aldrich, MO, USA). Cells were kept in a humidified atmosphere of 5% CO2 and 95% air at 37° C. and were split when they reached 90% confluency.
Cell viability assay. 1500 cells per well were plated on a 96-well plate (12 rows × 8 wells per row) in 100 µL growth medium and kept at 37° C. under 5% CO2. 24 h after seeding, cells were treated with another 100 µL growth medium containing different concentrations of the drug under evaluation. Cells in each row of the 96-well plate were treated with the same concentration of drug and the first two rows were kept as control and treated with growth medium alone. The highest drug concentration evaluated was 250 µM and lower concentrations were produced via serial dilution by a factor of 3. Treated cells were kept at 37° C. under 5% CO2 for 72 h. Then, 50 µL RPMI 1640 Medium without fetal bovine serum and penicillin/streptomycin containing 3 mg/mL 3-(4,5-dimethylthiazol-2-yl)-2,5-diphenyltetrazolium bromide (Sigma-Aldrich, MO, USA) was added to each well and cells were kept at 37° C. under 5% CO2 for another 4 h. Subsequently, the medium was removed, and the precipitated formazan dye taken up in DMSO (50 µL). The absorbance of the solutions was measured at 540 nm with an M5 microplate reader (Molecular Devices, USA) and 0.33 absorbance units were subtracted from all wells (this absorbance value corresponds to wells containing DMSO without dye - control). The absorbance of each row of wells were averaged and were directly proportional to the number of viable cells after drug treatment.
The antiproliferative activity of compounds 1-10 was evaluated in A549 lung cancer cells, a cell line with a well- established sensitivity to iron imbalance (Loza-Rosas et al., 2017; Ohara et al., 2013). For each compound, cellular proliferation profiles were produced via a standard MTT (3-(4,5-dimethylthiazol-2-yl)-2,5-diphenyltetrazolium bromide) assay for exposure times of 72 h and 24 h, respectively. From these proliferation profiles, averaged IC50 values and Hill slope (HS) parameters were determined via linear regression analysis.

[3] = system: methicillin-resistant Staphylococcus aureus (MRSA, ATCC 43300); test: Inhibition of drug-resistant bacteria (colonies, cell viability); type: cell-based; conditions: agar and defibrillated amniotic blood
Protocol: Cell viability of (FIG. 4B) MRSA (ATCC 43300) and (FIG. 4C) VRE (ATCC 51299) before and after treatment with ExBT, ExJade, ExPhos, and arbekacin (15 µM).
More importantly, two clinically relevant gram-positive, drug-resistant bacteria, methicillin-resistant Staphylococcus aureus (MRSA, ATCC 43300) and vancomycin-resistant Enterococcus faecalis (VRE, ATCC 51299) with high ALP activity were then used to evaluate further the therapeutic potential of these ExJade derivatives. Again, arbekacin was used as a positive control. […] The observed inhibition of VRE is of particular significance since there are few clinically available treatments for this multidrug-resistant bacterium.
(§1) This observation confirms the Fe(III) chelation dependent inhibitory activity. Due to the Fe(III) chelation dependent nature of the ExJade derivatives and to illustrate their potential “real life” utility, the inhibitory activity of ExBT and ExPhos against MRSA were evaluated in a blood containing medium consisting of agar and defibrillated amniotic blood (Filipowicz et al., 2003).

MRSA biofilms = test: Live/dead biofilm viability assay on glass slides; type: cell-based, Staphylococcus aureus; conditions: CFP-SUL 16 µg/mL alone or combined with chelator 64 µg/mL
Protocol: (§2) FIGS. 11A & 11B show biofilm experiments. (FIG. 11A) Evaluation of CFP-SUL (cefoperazone-sulbactam; 16 µg/mL), CFP-SUL@ExBT (16 µg/mL@64 µg/mL), CFP-SUL@deferasirox (16 µg/mL@64 µg/mL), and CFP-SUL@ExPhos (16 µg/mL@64 µg/mL) for the treatment of P. aeruginosa and MRSA biofilms. Processed 3D images of P. aeruginosa and MRSA biofilms on glass slides using the live/dead biofilm viability assay. Distributions of PI-stained (red, dead bacteria) and Syto9-stained (green, live bacteria) (FIG. 11B) P. aeruginosa and MRSA biovolumes and CFU counts (purple dots) for the above groups. Biovolume data are mean values of three independent replicates.
(§3) Biofilm experiments were carried out on glass slides with both Pseudomonas aeruginosa and MRSA. The therapeutic performance of the broad-spectrum antibiotic cefoperazonesulbactam (CFP-SUL) (Sheu et al., 2020) was evaluated on its own and in combination with deferasirox, ExBT, and ExPhos using the live/dead biofilm caption viability assay (propidium iodide (PI): dead, red; Syto9: live, green).

[4] = system: Klebsiella pneumoniae (ATCC 13883); test: Bacterial growth inhibition; type: cell-based
Protocol: (§4) Similarly, the bacterial inhibitory effect of the present ExJade derivatives was then evaluated. Initial tests were focused on two Gram-negative, ESKAPE bacteria (Mulani et al., 2019), Pseudomonas aeruginosa (ATCC 27853) and Klebsiella pneumoniae (ATCC 13883). Arbekacin, an FDA-approved aminoglycoside-based antibiotic, was used as positive control.

P. aeruginosa biofilms = test: Live/dead biofilm viability assay on glass slides; type: cell-based, Pseudomonas aeruginosa; conditions: CFP-SUL 16 µg/mL alone or combined with chelator 64 µg/mL
Protocol: as §2, §3

[5] = system: Pseudomonas aeruginosa (ATCC 27853); test: Bacterial growth inhibition; type: cell-based
Protocol: as §4, §1

[6] = system: alkaline phosphatase (ALP); test: Alkaline phosphatase response of the pro-chelator (fluorescence); type: biochemical; conditions: 15 µM, ALP 0-64 U
Source text: This ratiometric change in fluorescence emission was ascribed to the gradual and stepwise dephosphorylation of ExPhos, which was confirmed by LC-MS analysis. ExPhos solutions exposed to ALP (64 U ALP) were subsequently treated with increasing concentrations of Fe(III) (as the FeCl3 salt). […] Based on these findings, we considered it likely that ExPhos could serve as an ALP-responsive Fe(III) pro-chelator.
Recently, protected versions of known metal chelators (“prochelators”) have been explored in an effort to avoid premature metal chelation (Wang et al., 2016). The bis-phosphate ester ExPhos was thus prepared as a phosphatase-responsive fluorescent pro-chelator that would permit detection of a disease-based biomarker (i.e., alkaline phosphatase, ALP) (Zhang et al., 2020; McCullough and Barrios, 2020; Haarhaus et al., 2017; Gwynne et al., 2019). […] Timedependent changes in fluorescence emission intensity were also seen. The limit of detection (LoD) was calculated to be 0.016 75 U (measurements performed after 5 min of incubation). The ratiometric change in the fluorescence emission was ascribed to the gradual and stepwise (bis-phosphate ester to monophosphate ester to bisphenol) dephosphorylation of ExPhos (as confirmed by LCMS analyses). This sequential conversion leads to a rapid decrease in the blue emission and a slow increase in the green emission. […]

[7] = 24 h incubation, read-out: IC50 (24 h)
[8] = 72 h incubation, read-out: IC50 (72 h)

Row | Structure (SMILES) | solubility in aqueous media [1] | IC50 [2, 7] [µM] | IC50 [2, 8] | inhibition of bacterial growth [4] | inhibition of bacterial growth [5] | other results
1 | O=C(O)c1ccc(-n2nc(-c3ccccc3O)nc2-c2ccccc2O)cc1 [Compound 1, deferasirox, reference compound] | good solubility | – | – | – | – | cytotoxicity when cells were supplemented with FeCl3 ([2]; A549, 50 µM FeCl3, 72 h of exposure): no longer produced any observable cytotoxicity; IC50 ([2]; Homo sapiens, 24 h incubation, read-out: IC50 (24 h)): > 50 µM; IC50 ([2]; Homo sapiens, 72 h incubation, read-out: IC50 (72 h)): 8.5 µM
2 | COC(=O)c1ccc(-n2nc(-c3ccccc3O)nc2-c2ccccc2O)cc1 [Compound 2] | – | 21 ± 3 | 1.6 µM and 2.5 µM | – | – | –
3 | O=C(c1ccc(-n2nc(-c3ccccc3O)nc2-c2ccccc2O)cc1)N1CCOCC1 [Compound 4] | – | > 50 | 2.6 µM and 3.6 µM | – | – | –
4 | Oc1ccccc1-c1nc(-c2ccccc2O)n(-c2ccc(-c3nc4ccccc4s3)cc2)n1 [ExBT] | insoluble aggregates | – | – | capable of inhibiting the growth | capable of inhibiting the growth | inhibitory activity in blood containing medium [3]: remaining strong; antibiofilm effect (MRSA biofilms): enhanced; antibiofilm effect (P. aeruginosa biofilms): enhanced
5 | Oc1ccccc1-c1nc(-c2ccccc2O)n(-c2ccccc2)n1 [ExPh] | insoluble aggregates | – | – | capable of inhibiting the growth | capable of inhibiting the growth | –
6 | O=P(O)(O)Oc1ccccc1-c1nc(-c2ccccc2OP(=O)(O)O)n(-c2ccc(-c3nc4ccccc4s3)cc2)n1 [ExPhos] | – | – | – | capable of inhibiting the growth | capable of inhibiting the growth | inhibitory activity in blood containing medium [3]: remaining strong; change in fluorescence emission in the presence of ALP [6]: dose dependent change; antibiofilm effect (MRSA biofilms): enhanced; cytotoxicity towards A549 cells ([2]; pro-chelator, in words): no significant cytotoxicity; antibiofilm effect (P. aeruginosa biofilms): enhanced
7 | O=C1[O][Pt]2([NH][C@@H]3CCCC[C@H]3[NH]2)[O]C1=O [Ox-Pt, oxaliplatin, reference compound] | – | > 50 | 0.5 ± 0.1 µM | – | – | –
